This assay addresses T1, human CCR6 (Homo sapiens, UniProt P51684).
T1 construct: expressed in transfected cells; host or cells: Ba/F3 cells (mouse pro-B line)
T1 sequence (P51684 1-374): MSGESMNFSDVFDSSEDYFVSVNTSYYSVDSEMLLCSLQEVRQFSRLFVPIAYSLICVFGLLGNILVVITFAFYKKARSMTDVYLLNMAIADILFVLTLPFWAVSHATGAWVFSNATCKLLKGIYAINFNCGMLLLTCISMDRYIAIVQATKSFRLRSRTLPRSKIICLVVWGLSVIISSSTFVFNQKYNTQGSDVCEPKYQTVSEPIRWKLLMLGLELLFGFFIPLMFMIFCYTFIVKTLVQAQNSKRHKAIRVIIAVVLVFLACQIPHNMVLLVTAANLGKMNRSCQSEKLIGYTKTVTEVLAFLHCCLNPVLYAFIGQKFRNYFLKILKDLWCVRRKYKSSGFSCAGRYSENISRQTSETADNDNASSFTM
Description: Migration assay (chemotaxis, ChemoTX). In kind it is cell-based. The conditions noted are these: hCCR6-transfected Ba/F3 cells in human serum, migration to recombinant human CCL20 10 nM, 37° C. 45 minutes; read-out: Potency (IC50 value in the migration assay). From the text: A chemotaxis assay can be used to determine the efficacy of potential receptor antagonists at blocking the migration mediated through chemokine receptors, such as CCR6. This assay is routinely performed using the ChemoTX® microchamber system with a 5-μm pore-sized polycarbonate membrane. Chemokine receptor-expressing cells are required for such an assay. In this case, Ba/F3 cells (Palacios et al., Nature, 309:126, 1984) transfected with the gene for human CCR6 under control of the CMV promotor were used. To begin such an assay, hCCR6-transfected Ba/F3 cells are first grown for 24 hr in medium supplemented with sodium butyrate, which increases CCR6 transcription via the CMV promotor. The prepared Ba/F3 cells, are collected by centrifugation at 400×g at room temperature, then suspended at 4 million/ml in human serum. The compound being tested is serially diluted from a maximum final concentration of 1 μM (or an equivalent volume of its solvent (DMSO)) and is then added to the cell/serum mixture. Separately, recombinant human CCL20 (MIP-3α/LARC) at its EC50 concentration (10 nM) is placed in the lower wells of the ChemoTX® plate. The 5-μm (pore size) polycarbonate membrane is placed onto the plate, and 20 μL of the cell/compound mixture is transferred onto each well of the membrane. The plates are incubated at 37° C. for 45 minutes, after which the polycarbonate membranes are removed and 5 μl of the DNA-intercalating dye CyQUANT (Invitrogen, Carlsbad, CA) is added to the lower wells. The amount of fluorescence, corresponding to the number of migrated cells, is measured using a Spectrafluor Plus plate reader (TECAN, San Jose, CA).
Take “4-(4-(((3S,4R)-3-hydroxy-4-((4-(trifluoromethyl)phenyl)amino)piperidin-1-yl)sulfonyl)phenyl)picolinamide [Compound 81]”: the IC50 is under 1 nM.

For `Cc1nnc(-c2cc(-c3ccc(S(=O)(=O)N4CC[C@@H](Nc5ccc(C(F)(F)F)cn5)[C@@H](O)C4)cc3)ccn2)[nH]1` [Compound 64, (3S,4R)-1-((4-(2-(5-methyl-4H-1,2,4-triazol-3-yl)pyridin-4-yl)phenyl)sulfonyl)-4-((5-(trifluoromethyl)pyridin-2-yl)amino)piperidin-3-ol], the IC50 fell in the range of 1 to 10 nM.

For the compound `Cn1ccnc1-c1cc(-c2ccc(S(=O)(=O)N3CC[C@@H](Nc4ccc(C(F)(F)F)cn4)[C@@H](O)C3)cc2)ccn1` [Compound 65, (3S,4R)-1-((4-(2-(1-methyl-1H-imidazol-2-yl)pyridin-4-yl)phenyl)sulfonyl)-4-((5-(trifluoromethyl)pyridin-2-yl)amino)piperidin-3-ol], the IC50 was in the range of 10 to 1000 nM.

In the case of `Cc1noc(-c2cc(-c3ccc(S(=O)(=O)N4CC[C@@H](Nc5ccc(C(F)(F)F)cn5)[C@@H](O)C4)cc3)ccn2)n1` [Compound 66, (3S,4R)-1-((4-(2-(3-methyl-1,2,4-oxadiazol-5-yl)pyridin-4-yl)phenyl)sulfonyl)-4-((5-(trifluoromethyl)pyridin-2-yl)amino)piperidin-3-ol], the IC50 lay in the range of 1 to 10 nM.

With `Cc1nc(-c2cc(-c3ccc(S(=O)(=O)N4CC[C@@H](Nc5ccc(C(F)(F)F)cn5)[C@@H](O)C4)cc3)ccn2)no1` [Compound 67, (3S,4R)-1-((4-(2-(5-methyl-1,2,4-oxadiazol-3-yl)pyridin-4-yl)phenyl)sulfonyl)-4-((5-(trifluoromethyl)pyridin-2-yl)amino)piperidin-3-ol], the IC50 was under 1 nM.

On to `O=S(=O)(c1ccc(-c2ccnc(-c3nnco3)c2)cc1)N1CC[C@@H](Nc2ccc(C(F)(F)F)cn2)[C@@H](O)C1` [Compound 68, (3S,4R)-1-((4-(2-(1,3,4-oxadiazol-2-yl)pyridin-4-yl)phenyl)sulfonyl)-4-((5-(trifluoromethyl)pyridin-2-yl)amino)piperidin-3-ol], for which the IC50 was under 1 nM.

`Nc1nnc(-c2cc(-c3ccc(S(=O)(=O)N4CC[C@@H](Nc5ccc(C(F)(F)F)cn5)[C@@H](O)C4)cc3)ccn2)o1` [Compound 69, (3S,4R)-1-((4-(2-(5-amino-1,3,4-oxadiazol-2-yl)pyridin-4-yl)phenyl)sulfonyl)-4-((5-(trifluoromethyl)pyridin-2-yl)amino)piperidin-3-ol]: the IC50 was under 1 nM.

On to `Cc1cnc(-c2cc(-c3ccc(S(=O)(=O)N4CC[C@@H](Nc5ccc(C(F)(F)F)cn5)[C@@H](O)C4)cc3)ccn2)o1` [Compound 70, (3S,4R)-1-((4-(2-(5-methyloxazol-2-yl)pyridin-4-yl)phenyl)sulfonyl)-4-((5-(trifluoromethyl)pyridin-2-yl)amino)piperidin-3-ol], for which the IC50 was under 1 nM.

Regarding `Cn1c(-c2ccc(S(=O)(=O)N3CC[C@@H](Nc4ccc(C(F)(F)F)cn4)[C@@H](O)C3)cc2)cnc1C(N)=O` [Compound 71, 5-(4-(((3S,4R)-3-hydroxy-4-((5-(trifluoromethyl)pyridin-2-yl)amino)piperidin-1-yl)sulfonyl)phenyl)-1-methyl-1H-imidazole-2-carboxamide], the IC50 was under 1 nM.

In the case of `Cn1cc(-c2ccc(S(=O)(=O)N3CC[C@@H](Nc4ccc(C(F)(F)F)cn4)[C@@H](O)C3)cc2)nc1C(N)=O` [Compound 72, 4-(4-(((3S,4R)-3-hydroxy-4-((5-(trifluoromethyl)pyridin-2-yl)amino)piperidin-1-yl)sulfonyl)phenyl)-1-methyl-1H-imidazole-2-carboxamide], the IC50 is 1 to 10 nM.

In the case of `NC(=O)c1cc(-c2ccc(S(=O)(=O)N3CC[C@@H](Nc4ccc(C(F)(F)F)cn4)[C@@H](O)C3)cc2)n[nH]1` [Compound 73, 3-(4-(((3S,4R)-3-hydroxy-4-((5-(trifluoromethyl)pyridin-2-yl)amino)piperidin-1-yl)sulfonyl)phenyl)-1H-pyrazole-5-carboxamide], the IC50 fell in the range of 1 to 10 nM.

Take `O=C(NO)c1cc(-c2ccc(S(=O)(=O)N3CC[C@@H](Nc4ccc(C(F)(F)F)cn4)[C@@H](O)C3)cc2)ccn1` [Compound 74, N-hydroxy-4-(4-(((3S,4R)-3-hydroxy-4-((5-(trifluoromethyl)pyridin-2-yl)amino)piperidin-1-yl)sulfonyl)phenyl)picolinamide]: the IC50 lay within 1 to 10 nM.

As for `Cc1cnc(C#N)c(C)c1-c1ccc(S(=O)(=O)N2CC[C@@H](Nc3ccc(C(F)(F)F)cn3)[C@@H](O)C2)cc1` [Compound 75, 4-(4-(((3S,4R)-3-hydroxy-4-((5-(trifluoromethyl)pyridin-2-yl)amino)piperidin-1-yl)sulfonyl)phenyl)-3,5-dimethylpicolinonitrile], the IC50 is under 1 nM.

With `O=S(=O)(c1ccc(-c2cncc(N3CCNCC3)c2)cc1)N1CC[C@@H](Nc2ccc(C(F)(F)F)cn2)[C@@H](O)C1` [Compound 76, (3S,4R)-1-((4-(5-(piperazin-1-yl)pyridin-3-yl)phenyl)sulfonyl)-4-((5-(trifluoromethyl)pyridin-2-yl)amino)piperidin-3-ol], the IC50 was in the range of 1 to 10 nM.

On to `N#Cc1n[nH]c2c(F)cc(-c3ccc(S(=O)(=O)N4CC[C@@H](Nc5ccc(C(F)(F)F)cn5)[C@@H](O)C4)cc3)cc12` [Compound 77, 7-fluoro-5-(4-(((3S,4R)-3-hydroxy-4-((5-(trifluoromethyl)pyridin-2-yl)amino)piperidin-1-yl)sulfonyl)phenyl)-1H-indazole-3-carbonitrile], for which the IC50 was under 1 nM.

Consider `Cc1cc(-c2ccc(S(=O)(=O)N3CC[C@@H](Nc4ccc(C(F)(F)F)cn4)[C@@H](O)C3)cc2)cc2c1C(=O)NC2` [Compound 78, 5-(4-(((3S,4R)-3-hydroxy-4-((5-(trifluoromethyl)pyridin-2-yl)amino)piperidin-1-yl)sulfonyl)phenyl)-7-methylisoindolin-1-one], for which the IC50 is under 1 nM.

As for `COc1cc(-c2ccc(S(=O)(=O)N3CC[C@@H](Nc4ccc(C(F)(F)F)cn4)[C@@H](O)C3)cc2)cc2cn[nH]c(=O)c12` [Compound 79, 6-(4-(((3S,4R)-3-hydroxy-4-((5-(trifluoromethyl)pyridin-2-yl)amino)piperidin-1-yl)sulfonyl)phenyl)-8-methoxyphthalazin-1(2H)-one], the IC50 was under 1 nM.

As for `Cc1cc(-c2ccc(S(=O)(=O)N3CC[C@@H](Nc4ccc(C(F)(F)F)cn4)[C@@H](O)C3)cc2)cc2c1CN(C(=O)N(C)C)C2` [Compound 80, 6-(4-(((3S,4R)-3-hydroxy-4-((5-(trifluoromethyl)pyridin-2-yl)amino)piperidin-1-yl)sulfonyl)phenyl)-N,N,4-trimethylisoindoline-2-carboxamide], the IC50 was under 1 nM.

As to `Cc1cc(C(F)(F)F)cnc1N[C@@H]1CCN(S(=O)(=O)c2ccc(-c3ccnc(C(N)=O)c3)cc2)C[C@@H]1O` [Compound 82, 4-[4-[[(3S,4R)-3-hydroxy-4-[[3-methyl-5-(trifluoromethyl)-2-pyridyl]amino]-1-piperidyl]sulfonyl]phenyl]pyridine-2-carboxamide], the IC50 was under 1 nM.

In the case of `Cc1cc(C(F)(F)F)cnc1N[C@@H]1CCN(S(=O)(=O)c2ccc(-c3cnc(C(N)=O)n3C)cc2)C[C@@H]1O` [Compound 83, 5-[4-[[(3S,4R)-3-hydroxy-4-[[3-methyl-5-(trifluoromethyl)-2-pyridyl]amino]-1-piperidyl]sulfonyl]phenyl]-1-methyl-imidazole-2-carboxamide], the IC50 was under 1 nM.

For `Cc1nnc(-c2cc(-c3ccc(S(=O)(=O)N4CC[C@@H](Nc5ncc(C(F)(F)F)cc5C)[C@@H](O)C4)cc3)ccn2)o1` [Compound 84, (3S,4R)-1-[4-[2-(5-methyl-1,3,4-oxadiazol-2-yl)-4-pyridyl]phenyl]sulfonyl-4-[[3-methyl-5-(trifluoromethyl)-2-pyridyl]amino]piperidin-3-ol], the IC50 is under 1 nM.

On to `N#Cc1cc(C(F)(F)F)cnc1N[C@@H]1CCN(S(=O)(=O)c2ccc(-c3ccnc(C(N)=O)c3)cc2)C[C@@H]1O` [Compound 85, 4-(4-(((3S,4R)-4-((3-cyano-5-(trifluoromethyl)pyridin-2-yl)amino)-3-hydroxypiperidin-1-yl)sulfonyl)phenyl)picolinamide], for which the IC50 is 10 to 1000 nM.

For the origin of these results see US12018016B2, “Aryl sulfonyl (hydroxy) piperidines as CCR6 inhibitors” (CHEMOCENTRYX, INC., priority 2021, dated 2024).
